# Reference: patent US20230183237A1, “COMPETITIVE AND NONCOMPETITIVE INHIBITORS OF THE MUSCARINIC ACETYLCHOLINE RECEPTOR M5” (Vanderbilt University, priority 2020, published 2023)
# Molecular target: T1, hM5 (Homo sapiens, UniProt P08912)
# T1 construct: expressed in transfected cells
# T1 sequence (P08912 1-532): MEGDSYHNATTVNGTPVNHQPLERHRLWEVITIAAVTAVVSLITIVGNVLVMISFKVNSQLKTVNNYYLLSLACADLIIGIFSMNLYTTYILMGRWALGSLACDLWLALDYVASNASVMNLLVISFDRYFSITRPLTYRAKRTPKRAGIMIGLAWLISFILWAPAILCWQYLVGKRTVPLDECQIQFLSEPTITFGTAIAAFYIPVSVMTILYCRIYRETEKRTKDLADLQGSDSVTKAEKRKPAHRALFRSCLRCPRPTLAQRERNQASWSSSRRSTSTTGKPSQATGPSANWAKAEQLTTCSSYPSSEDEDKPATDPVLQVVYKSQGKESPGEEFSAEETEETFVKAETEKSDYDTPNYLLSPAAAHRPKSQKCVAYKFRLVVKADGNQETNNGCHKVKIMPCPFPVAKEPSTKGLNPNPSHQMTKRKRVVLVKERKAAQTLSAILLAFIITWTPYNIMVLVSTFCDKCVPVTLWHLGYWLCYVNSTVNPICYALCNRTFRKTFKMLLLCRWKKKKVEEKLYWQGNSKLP
# Assay: Calcium mobilization concentration-response (IC50 vs EC80 acetylcholine), CHO hM5
# Type: cell-based
# Conditions: CELL LINE hM5; vs EC80 acetylcholine; read-out: IC50
# Method in brief: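 CHO cells stably expressing hM5, dye-loaded, in HBSS/20 mM HEPES/2.5 mM probenecid, pH 7.4. Compounds were pre-incubated 140 s before an EC80 acetylcholine challenge, with calcium flux read kinetically.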
row,Structure (SMILES),IC50
1,"Cc1cc(C(F)(F)F)ncc1C1CCN(S(=O)(=O)c2cnc(C)n2C)CC1 [Compound 396, 5(1-((1,2-dimethyl-1H-imidazol-5-yl)sulfonyl)piperidin-4-yl)-4-methyl-2-(trifluoromethyl)pyridine]",> 10 µM
2,"Cc1ncc(S(=O)(=O)N2CCC(c3cnc(C(F)(F)F)cc3C)CC2)s1 [Compound 397, 2-methyl-5-((4-(4-methyl-6-(trifluoromethyl)pyridin-3-yl)piperidin-1-yl)sulfonyl)thiazole]",> 10 µM
3,"Cc1cc(C(F)(F)F)ncc1C1CCN(S(=O)(=O)c2cnn3c2OCCC3)CC1 [Compound 398, 3-((4-(4-methyl-6-(trifluoromethyl)pyridin-3-yl)piperidin-1-yl)sulfonyl)-6,7-dihydro-5H-pyrazolo[5,1-b][1,3]oxazine]",6.31 µM
4,"Cc1cc(C(F)(F)F)ncc1C1CCN(S(=O)(=O)c2ccc3c(c2)CCO3)CC1 [Compound 399, 5-(1-((2,3-dihydrobenzofuran-5-yl)sulfonyl)piperidin-4-yl)-4-methyl-2-(trifluoromethyl)pyridine]",3.84 µM
5,"Cc1cc2ncnn2cc1C1CCN(S(=O)(=O)c2cnn(C)c2C#N)CC1 [Compound 400, 1-Methyl-4-((4-(7-methyl-[1,2,4]triazolo[1,5-a]pyridin-6-yl)piperidin-1-yl)sulfonyl)-1H-pyrazole-5-carbonitrile]",0.018 µM
6,"Cc1cc2ncnn2cc1C1CCN(S(=O)(=O)c2cnn(C)c2CC#N)CC1 [Compound 401, 2-(1-methyl-4-((4-(7-methyl-[1,2,4]triazolo[1,5-a]pyridin-6-yl)piperidin-1-yl)sulfonyl)-1H-pyrazol-5-yl)acetonitrile]",0.072 µM
7,"Cn1ncc(S(=O)(=O)N2CCC(c3cn4ncnc4cc3F)CC2)c1C#N [Compound 402, 4-((4-(7-fluoro-[1,2,4]triazolo[1,5-a]pyridin-6-yl)piperidin-1-yl)sulfonyl)-1-methyl-1H-pyrazole-5-carbonitrile]",0.085 µM
8,"Cn1ncc(S(=O)(=O)N2CCC(c3cn4ncnc4cc3F)CC2)c1CC#N [Compound 403, 2-(4-((4-(7-fluoro-[1,2,4]triazolo[1,5-a]pyridin-6-yl)piperidin-1-yl)sulfonyl)-1-methyl-1H-pyrazol-5-yl)acetonitrile]",5.06 µM
9,"Cc1cc(F)c(F)cc1C1=CCN(S(=O)(=O)c2cnn(C)c2C)CC1 [Compound 404, 4-(4,5-difluoro-2-methylphenyl)-1-((1,5-dimethyl-1H-pyrazol-4-yl)sulfonyl)-1,2,3,6-tetrahydropyridine]",1.54 µM
10,"Cn1ncc(S(=O)(=O)N2CCC(c3cn4ncnc4cc3Cl)CC2)c1C#N [Compound 405, 4-((4-(7-chloro-[1,2,4]triazolo[1,5-a]pyridin-6-yl)piperidin-1-yl)sulfonyl)-1-methyl-1H-pyrazole-5-carbonitrile]",0.011 µM
11,"Cn1ncc(S(=O)(=O)N2CCC(c3cn4ncnc4cc3Cl)CC2)c1CC#N [Compound 406, 2-(4-((4-(7-chloro-[1,2,4]triazoto[1,5-a]pyridin-6-yl)piperidin-1-yl)sulfonyl)-1-methyl-1H-pyrazol-5-yl)acetonitrile]",0.058 µM
12,"CCc1cc2ncnn2cc1C1CCN(S(=O)(=O)c2cnn(C)c2C#N)CC1 [Compound 407, 4-((4-(7-ethyl-[1,2,4]triazolo[1,5-a]pyridin-6-yl)piperidin-1-yl)sulfonyl)-1-methyl-1H-pyrazole-5-carbonitrile]",0.148 µM
13,"CCc1cc2ncnn2cc1C1CCN(S(=O)(=O)c2cnn(C)c2CC#N)CC1 [Compound 408, 2-(4-((4-(7-ethyl-[1,2,4]triazolo[1,5-a]pyridin-6-yl)piperidin-1-yl)sulfonyl)-1-methyl-1H-pyrazol-5-yl)acetonitrile]",0.636 µM
14,"Cn1ncc(S(=O)(=O)N2CCC(c3cn4ncnc4cc3C(F)(F)F)CC2)c1C#N [Compound 409, 1-methyl-4-((4-(7-(trifluoromethyl)-[1,2,4]triazolo[1,5-a]pyridin-6-yl)piperidin-1-yl)sulfonyl)-1H-pyrazole-5-carbonitrile]",0.059 µM
15,"Cn1ncc(S(=O)(=O)N2CCC(c3cn4ncnc4cc3C(F)(F)F)CC2)c1CC#N [Compound 410, 2-(1-methyl-4-((4-(7-(trifluoromethyl)-[1,2,4]triazolo[1,5-a]pyridin-6-yl)piperidin-1-yl)sulfonyl)-1H-pyrazol-5-yl)acetonitrile]",0.204 µM
16,"COC1(c2cn3ncnc3cc2C)CCN(S(=O)(=O)c2cnn(C)c2C)CC1 [Compound 412, 6-(1-((1,5-dimethyl-1H-pyrazol-4-yl)sulfonyl)-4-methoxypiperidin-4-yl)-7-methyl-[1,2,4]triazolo[1,5-a]pyridine]",> 10 µM
17,"COC1(c2cn3ncnc3cc2C)CCN(S(=O)(=O)c2cnn(C)c2Cl)CC1 [Compound 415, 6-(1-((5-chloro-1-methyl-1H-pyrazol-4-yl)sulfonyl)-4-methoxypiperidin-4-yl)-7-methyl-[1,2,4]triazolo[1,5-a]pyridine]",> 10 µM

row,Structure (SMILES),IC50
1,"COC1(c2cn3ncnc3cc2C)CCN(S(=O)(=O)c2cnn3c2OCCC3)CC1 [Compound 416, 3-((4-methoxy-4-(7-methyl-[1,2,4]triazolo[1,5-a]pyridin-6-yl)piperidin-1-yl)sulfonyl)-6,7-dihydro-5H-pyrazolo[5,1-b][1,3]oxazine]",> 10 µM
2,"Cc1cc2ncccc2cc1C1CCN(S(=O)(=O)c2cnn(C)c2Cl)CC1 [Compound 417, 6-(1-((5-chloro-1-methyl-1H-pyrazol-4-yl)sulfonyl)piperidin-4-yl)-7-methylquinoline]",0.034 µM
3,"Cc1cc2ncccc2cc1C1CCN(S(=O)(=O)c2cnn(C)c2C)CC1 [Compound 418, 6(1-((1,5-dimethyl-1H-pyrazol-4-yl)sulfonyl)piperidin-4-yl)-7-methylquinoline]",0.032 µM
4,"Cc1cc2ncnn2cc1C1(F)CCN(S(=O)(=O)c2cnn(C)c2Cl)CC1 [Compound 419, 6-(1-((5-chloro-1-methyl-1H-pyrazol-4-yl)sulfonyl)-4-fluoropiperidin-4-yl)-7-methyl-[1,2,4]triazolo[1,5-a]pyridine]",0.036 µM
5,"Cc1cc2ncnn2cc1C1(F)CCN(S(=O)(=O)c2cnn3c2CCC3)CC1 [Compound 420, 6-(1-((5,6-dihydro-4H-pyrrolo[1,2-b]pyrazol-3-yl)sulfonyl)-4-fluoropiperidin-4-yl)-7-methyl-[1,2,4]triazolo[1,5-a]pyridine]",0.039 µM
6,"Cc1cc2ncnn2cc1C1(F)CCN(S(=O)(=O)c2cnn3c2OCCC3)CC1 [Compound 421, 3-((4-fluoro-4-(7-methyl-[1,2,4]triazolo[1,5-a]pyridin-6-yl)piperidin-1-yl)sulfonyl)-6,7-dihydro-5H-pyrazolo[5,1-b][1,3]oxazine]",0.069 µM
7,"Cc1cc2ncnn2cc1C1(F)CCN(S(=O)(=O)c2cnn(C)c2C(F)F)CC1 [Compound 422, 6-(1-((5-(difluoromethyl)-1-methyl-1H-pyrazol-4-yl)sulfonyl)-4-fluoropiperidin-4-yl)-7-methyl-[1,2,4]triazolo[1,5-a]pyridine]",0.086 µM
8,"Cc1cc2ncnn2cc1C1(F)CCN(S(=O)(=O)c2cnn(C)c2C(F)(F)F)CC1 [Compound 423, 6-(4-fluoro-1-((1-methyl-5-(trifluoromethyl)-1H-pyrazol-4-yl)sulfonyl)piperidin-4-yl)-7-methyl-[1,2,4]triazolo[1,5-a]pyridine]",0.912 µM
9,"Cc1cc2nccnc2cc1C1CCN(S(=O)(=O)c2cnn(C)c2Cl)CC1 [Compound 424, 6-(1-((5-chloro-1-methyl-1H-pyrazol-4-yl)sulfonyl)piperidin-4-yl)-7-methylquinoxaline]",0.055 µM
10,"Cc1cc2nccnc2cc1C1CCN(S(=O)(=O)c2cnn(C)c2C)CC1 [Compound 425, 6-(1-((1,5-dimethyl-1H-pyrazol-4-yl)sulfonyl)piperidin-4-yl)-7-methylquinoxaline]",0.072 µM
11,"Cc1cc2nccnc2cc1C1CCN(S(=O)(=O)c2cnn3c2OCCC3)CC1 [Compound 426, 3-((4-(7-methylquinoxalin-6-yl)piperidin-1-yl)sulfonyl)-6,7-dihydro-5H-pyrazolo[5,1-b][1,3]oxazine]",0.026 µM
12,"Cc1cnc2ccccc2c1C1=CCN(S(=O)(=O)c2cnn(C)c2Cl)CC1 [Compound 427, 4-(1-((5-chloro-1-methyl-1H-pyrazol-4-yl)sulfonyl)-1,2,3,6-tetrahydropyridin-4-yl)-3-methylquinoline]",0.032 µM
13,"Cc1cnc2ccccc2c1C1=CCN(S(=O)(=O)c2cnn3c2OCCC3)CC1 [Compound 428, 3-((4-(3-methylquinolin-4-yl)-3,6-dihydropyridin-1(2H)-yl)sulfonyl)-6,7-dihydro-5H-pyrazolo[5,1-b][1,3]oxazine]",0.063 µM
14,"Cc1cnccc1C1CCN(S(=O)(=O)c2cnn(C)c2Cl)CC1 [Compound 429, 4-(1-((5-chloro-1-methyl-1H-pyrazol-4-yl)sulfonyl)piperidin-4-yl)-3-methylpyridine]",0.398 µM
15,"Cc1ncc(S(=O)(=O)N2CCC(c3ccncc3C)CC2)s1 [Compound 430, 2-methyl-5-((4-(3-methylpyridin-4-yl)piperidin-1-yl)sulfonyl)thiazole]",> 10 µM
16,"Cc1cnccc1C1CCN(S(=O)(=O)c2cnn(C)c2C)CC1 [Compound 431, 4-(1-((1,5-dimethyl-1H-pyrazol-4-yl)sulfonyl)piperidin-4-yl)-3-methylpyridine]",0.812 µM
